Source: US10280198B2, “Therapeutic agents for reducing parathyroid hormone levels” (KAI PHARMACEUTICALS, INC., priority 2009, dated 2019)

Legend:
[1] = tested on: rat peritoneal mast cells; assay: In vitro histamine induction in rat peritoneal mast cells; format: cell-based
In short: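 Mast cells from peritoneal lavage of Sprague Dawley rats were incubated with compound at 10 μM for 15 min at 37 °C in HBSS + 25 mM HEPES pH 7.4. Supernatant histamine measured by EIA; response expressed as fold change versus pre-incubation levels.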

plasma PTH [2] = assay: 1K1C rat model of acute renal insufficiency, plasma PTH after dosing; format: in vivo; details: 1K1C rats
Text: A rat model of acute renal insufficiency (also referred to as the 1K1C model) was developed to simulate the pathology of SHPT associated with end stage renal disease. […] The development of this model allowed for the further characterization of described compounds in the context of a subject with renal dysfunction and elevated PTH. Typical baseline PTH levels in this model averaged ˜450 pg/mL.
The ensuing ischemia/reperfusion (I/R) damage to the remaining kidney results in significant necrosis and renal failure. Serum creatinine levels were elevated for over 24-48 hours following I/R insult (data not shown). […] By 48 hours post-I/R, plasma PTH levels were elevated to ˜450 pg/mL (˜5 fold increase) and in some instances reach as high as ˜1200 pg/mL. This reproducible increase in serum creatinine and PTH provided a robust model that mimics the physiology seen ESRD patients.
The protocol used in this study is as follows. Male Sprague Dawley rats were purchased from Charles River Laboratories (Hollister, Calif.; requested purchase weight 250-275 g). […] Animals were maintained in a temperature-controlled environment with a constant 12 hours light/12 hours dark cycle and free access to food and water at all times. All experimental procedures with animals were performed according to IACUC guidelines.
General anesthesia was induced and maintained by intraperitoneal (IP) injection of sodium pentobarbital (5.2%, 0.4 mL/rat). For animals that received 45 minutes of renal ischemia an additional IP injection of sodium pentobarbital (5.2%, 0.1 mL/rat) was given to maintain the anesthetic plane. Blood sampling for PTH measurements following administration of compounds in normal rats was done under continuous isoflurane anesthesia.
For model development studies, the left femoral vein was cannulated with a PE-10 tube for blood drawing. Both kidneys were exposed via a laparotomy. A right nephrectomy was performed after the right renal pedicle and ureter were ligated with double 2-0 silk sutures. After confirmation of non-bleeding in the right pedicle, the left renal artery was carefully dissected and clamped with a micro vascular clip to induce left renal global ischemia. Renal ischemia was confirmed by observation of a global white-grey color change (blanching). The abdominal incision was temporarily covered with gauze to help maintain the temperature of the abdominal organs. After 45 minutes, the designated period of ischemia, the clip was removed and left renal artery flow was considered restored upon observation of a global restoration of red color. The abdominal incision was closed in layers with 2-0 silk sutures. The animal was then recovered from anesthesia. Physiological parameters including body temperature (36-37.5° C.) and body weight were measured throughout the procedure. Body temperature was monitored and maintained using a heat pad rectal probe feedback system.
Approximately 48 hours after the 1K1C surgery (I/R injury), animals were dosed with various compounds to measure effects on plasma PTH and calcium. In most cases, test articles were administered by IV infusion (infusion time 5, 10 or 30 minutes) although in some studies compounds were administered by IV bolus or subcutaneous (SC) bolus injection. For drug administration and blood draws, animals were anesthetized with isoflurane.

plasma histamine = details: rat, in vivo
plasma PTH [3] = assay: Micropore-facilitated transdermal delivery, plasma PTH in rats; details: CD hairless rats, derma roller microporation, 10% solution in reservoir, FIG. 11
[4] = 3 mg/kg 30-minute IV infusion, FIG. 1

SMILES | Histamine in vitro Fold change of non-treated at 10 uM [1] [fold] | PTH reduction from baseline 16 hours after dosing (plasma PTH [2]; 1 mg/kg 30-minute IV infusion) [%] | initial fall of PTH levels from baseline (plasma PTH [2]; 1 mg/kg 30-minute IV infusion) | initial drop of PTH, level as % of baseline (plasma PTH [2]; 1 mg/kg SC bolus) [%] | duration of reduced plasma PTH levels (plasma PTH [2]; 1 mg/kg, SC bolus or 30-minute IV infusion (both routes)) | reduced PTH levels from baseline twenty-four hours after dosing (plasma PTH [2]; 1 mg/kg, either route (SC bolus or IV infusion)) | PTH-lowering efficacy and duration of action (plasma PTH [2]; [4]) | mean PTH reduction at the 24 hour time point (plasma PTH [2]; [4]) [%] | fold increase in histamine level relative to pre-dose (plasma histamine) [fold] | histamine response after IV bolus (plasma histamine; iv) | duration of PTH reduction from baseline (plasma PTH [3]) [h] | PTH-lowering activity (plasma PTH [2]; 1 mg/kg 30-minute IV infusion, over 24 hours, FIG. 9)
CC(=O)N[C@H](CS)C(=O)N[C@H](CCCNC(=N)N)C(=O)N[C@H](CCCNC(=N)N)C(=O)N[C@H](CCCNC(=N)N)C(=O)N[C@H](CCCNC(=N)N)C(=O)N[C@H](CCCNC(=N)N)C(=O)N[C@H](CCCNC(=N)N)C(N)=O [SEQ ID NO: 6, Ac-crrrrrr-NH2] | 11.5 | ~80 | 80-90% | ~40 | over 24 hours | 40-60% | increased efficacy as well as the duration of action | ~40 | 7 | returned to baseline levels 15 minutes later | ~4 | –
CC(=O)N[C@H](CS)C(=O)N[C@H](C)C(=O)N[C@H](CCCNC(=N)N)C(=O)N[C@H](CCCNC(=N)N)C(=O)N[C@H](CCCNC(=N)N)C(=O)N[C@H](C)C(=O)N[C@H](CCCNC(=N)N)C(N)=O [SEQ ID NO: 26, Ac-carrrar-NH2] | 1.4 | – | – | – | – | – | – | – | – | – | – | activity that is equivalent to Ac-crrrrrr-NH2
